The numbers were not newly measured in patent US20220323409A1, “MODIFIED RELEASE FORMULATIONS AND USES THEREOF” (SUNOVION PHARMACEUTICALS INC., priority 2019, published 2022), which cites them from elsewhere.

The conditions of data set [1]: Taubel et al. 2017.
The conditions of data set [2]: 400-800 mg/day dosage range, product label.

With `CCN1CCCC1CNC(=O)c1cc(S(=O)(=O)CC)c(N)cc1OC` (racemic) [Racemic (50:50), 4-amino-N-[(1-ethylpyrrolidin-2-yl)methyl]-5-ethylsulfonyl-2-methoxy-benzamide], the “QT interval prolongation versus plasma concentration” value in data set [1] is listed as “substantially linear increase of prolongation with plasma concentration”. In data set [2], the “frequency of movement related adverse events (tremor, rigidity, hypokinesia, hypersalivation, akathisia, dyskinesia)” value is on record as “very common”.
